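All cell lines were grown in 96-well plates and treated with compound for 48 hours. GI50 marks 50% less growth.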 Calls of active or inactive are those of the source. Cut-off read from the data, not from the text of the source: active = GI50 up to about 1.1 µM and inactive = higher.
How the values were obtained:
Experiment in all cases: growth of human tumour cells (NCI), 48 h
HOP-62 = test system: HOP-62
BT-549 = test system: BT-549
DU-145 = test system: DU-145
LOX IMVI = test system: LOX IMVI
MDA-MB-435 = test system: MDA-MB-435
SF-268 = test system: SF-268
RXF 393 = test system: RXF 393
K562 = test system: K562
SN12C = test system: SN12C
HCT-15 = test system: HCT-15
COLO 205 = test system: COLO 205
SNB-19 = test system: SNB-19
OVCAR-3 = test system: OVCAR-3
KM12 = test system: KM12
A549 = test system: A549
OVCAR-5 = test system: OVCAR-5
HT-29 = test system: HT-29
CAKI-1 = test system: CAKI-1
IGROV-1 = test system: IGROV-1
NCI-H522 = test system: NCI-H522

## CC1(C)C2CC1C(/C=N\OCC(=O)O)=CC2=O (stereo unspecified)
HOP-62
  GI50: > 100 µM (inactive)
BT-549
  GI50: > 100 µM (inactive)
DU-145
  GI50: > 100 µM (inactive)
LOX IMVI
  GI50: > 100 µM (inactive)
MDA-MB-435
  GI50: > 100 µM (inactive)
SF-268
  GI50: > 100 µM (inactive)
RXF 393
  GI50: > 100 µM (inactive)
K562
  GI50: > 100 µM (inactive)
SN12C
  GI50: > 100 µM (inactive)
HCT-15
  GI50: > 100 µM
COLO 205
  GI50: > 100 µM (inactive)
SNB-19
  GI50: > 100 µM (inactive)
OVCAR-3
  GI50: > 100 µM (inactive)
KM12
  GI50: > 100 µM (inactive)
A549
  GI50: > 100 µM (inactive)
OVCAR-5
  GI50: > 100 µM (inactive)
HT-29
  GI50: > 100 µM (inactive)
CAKI-1
  GI50: > 100 µM (inactive)
IGROV-1
  GI50: > 100 µM (inactive)

## COc1ccc(/N=C2\C(=N/c3ccc(OC)cc3)N(S(=O)(=O)c3ccccc3)C(=S)N2c2ccc(OC)cc2)cc1
HOP-62
  GI50: > 100 µM (inactive)
BT-549
  GI50: > 100 µM (inactive)
DU-145
  GI50: > 100 µM (inactive)
MDA-MB-435
  GI50: > 100 µM (inactive)
NCI-H522
  GI50: > 100 µM (inactive)
SF-268
  GI50: > 100 µM (inactive)
RXF 393
  GI50: 46.2 µM (inactive)
K562
  GI50: > 100 µM (inactive)
SN12C
  GI50: > 100 µM (inactive)
HCT-15
  GI50: > 100 µM
COLO 205
  GI50: > 100 µM (inactive)
SNB-19
  GI50: > 100 µM (inactive)
OVCAR-3
  GI50: > 100 µM (inactive)
KM12
  GI50: > 100 µM (inactive)
A549
  GI50: > 100 µM (inactive)
OVCAR-5
  GI50: > 100 µM (inactive)
CAKI-1
  GI50: > 100 µM (inactive)
IGROV-1
  GI50: > 100 µM (inactive)

## CCOP(=O)(OCC)C(C)(C)OC(=O)NC#N
HOP-62
  GI50: > 100 µM (inactive)
BT-549
  GI50: 79.6 µM (inactive)
DU-145
  GI50: > 100 µM (inactive)
LOX IMVI
  GI50: > 100 µM (inactive)
MDA-MB-435
  GI50: > 100 µM (inactive)
SF-268
  GI50: > 100 µM (inactive)
RXF 393
  GI50: > 100 µM (inactive)
K562
  GI50: > 100 µM (inactive)
SN12C
  GI50: > 100 µM (inactive)
HCT-15
  GI50: > 100 µM
COLO 205
  GI50: > 100 µM (inactive)
SNB-19
  GI50: > 100 µM (inactive)
OVCAR-3
  GI50: > 100 µM (inactive)
KM12
  GI50: > 100 µM (inactive)
A549
  GI50: > 100 µM (inactive)
OVCAR-5
  GI50: > 100 µM (inactive)
HT-29
  GI50: > 100 µM (inactive)
CAKI-1
  GI50: > 100 µM (inactive)
IGROV-1
  GI50: > 100 µM (inactive)

## C=C(C)[C@H]1C2=CC(C)=C(O2)[C@@H](O[C@@H]2c3oc(cc3C)[C@H](C(=C)C)[C@H]3C=C(CC[C@H]2C(=C)C)C(=O)O3)[C@H](C(=C)C)CCC2=C[C@H]1OC2=O
HOP-62
  GI50: 81.1 µM (inactive)
BT-549
  GI50: > 100 µM (inactive)
DU-145
  GI50: > 100 µM (inactive)
LOX IMVI
  GI50: > 100 µM (inactive)
MDA-MB-435
  GI50: > 100 µM (inactive)
NCI-H522
  GI50: > 100 µM (inactive)
SF-268
  GI50: > 100 µM (inactive)
K562
  GI50: > 100 µM (inactive)
SN12C
  GI50: > 100 µM (inactive)
HCT-15
  GI50: > 100 µM
COLO 205
  GI50: > 100 µM (inactive)
SNB-19
  GI50: > 100 µM (inactive)
OVCAR-3
  GI50: > 100 µM (inactive)
KM12
  GI50: > 100 µM (inactive)
A549
  GI50: > 100 µM (inactive)
OVCAR-5
  GI50: > 100 µM (inactive)
CAKI-1
  GI50: > 100 µM (inactive)
IGROV-1
  GI50: > 100 µM (inactive)

## CC1(C)CC23CC(C)(C)c4cccc(c42)OCc2ccc4ccc5ccc(nc5c4n2)COc2cccc1c23
HOP-62
  GI50: > 50 µM (inactive)
BT-549
  GI50: > 50 µM (inactive)
DU-145
  GI50: > 50 µM (inactive)
LOX IMVI
  GI50: > 50 µM (inactive)
MDA-MB-435
  GI50: > 50 µM (inactive)
NCI-H522
  GI50: > 50 µM (inactive)
SF-268
  GI50: > 50 µM (inactive)
K562
  GI50: > 50 µM (inactive)
SN12C
  GI50: > 50 µM (inactive)
HCT-15
  GI50: > 50 µM
COLO 205
  GI50: > 50 µM (inactive)
SNB-19
  GI50: > 5 µM (inactive)
OVCAR-3
  GI50: > 50 µM (inactive)
KM12
  GI50: > 50 µM (inactive)
A549
  GI50: > 50 µM (inactive)
OVCAR-5
  GI50: > 50 µM (inactive)
HT-29
  GI50: > 50 µM (inactive)
CAKI-1
  GI50: > 50 µM (inactive)
IGROV-1
  GI50: > 50 µM (inactive)

## COc1cc(C(c2ccc3c(c2)OCO3)N2C(=O)CCC2C(=O)O)cc(OC)c1OC (stereo unspecified)
HOP-62
  GI50: > 100 µM (inactive)
BT-549
  GI50: > 100 µM (inactive)
DU-145
  GI50: > 100 µM (inactive)
LOX IMVI
  GI50: > 100 µM (inactive)
MDA-MB-435
  GI50: > 100 µM (inactive)
NCI-H522
  GI50: > 100 µM (inactive)
SF-268
  GI50: > 100 µM (inactive)
K562
  GI50: > 100 µM (inactive)
SN12C
  GI50: > 100 µM (inactive)
HCT-15
  GI50: > 100 µM
COLO 205
  GI50: > 100 µM (inactive)
SNB-19
  GI50: > 100 µM (inactive)
OVCAR-3
  GI50: > 100 µM (inactive)
KM12
  GI50: > 100 µM (inactive)
A549
  GI50: > 100 µM (inactive)
OVCAR-5
  GI50: > 100 µM (inactive)
HT-29
  GI50: > 100 µM (inactive)
CAKI-1
  GI50: > 100 µM (inactive)
IGROV-1
  GI50: > 100 µM (inactive)

## CN(/N=C/c1ccc(Cl)c(Cl)c1)C1=NCCN1
HOP-62
  GI50: 17.4 µM (inactive)
BT-549
  GI50: 28.3 µM (inactive)
DU-145
  GI50: 48.6 µM (inactive)
LOX IMVI
  GI50: 12.4 µM (inactive)
MDA-MB-435
  GI50: 19.5 µM (inactive)
NCI-H522
  GI50: 13.8 µM (inactive)
SF-268
  GI50: 28.7 µM (inactive)
K562
  GI50: 12.1 µM (inactive)
SN12C
  GI50: 29.9 µM (inactive)
HCT-15
  GI50: 30.8 µM
COLO 205
  GI50: 17.7 µM (inactive)
SNB-19
  GI50: 55.8 µM (inactive)
OVCAR-3
  GI50: 28.6 µM (inactive)
KM12
  GI50: 28.1 µM (inactive)
A549
  GI50: 33.4 µM (inactive)
OVCAR-5
  GI50: > 100 µM (inactive)
HT-29
  GI50: 25.2 µM (inactive)
CAKI-1
  GI50: 17.3 µM (inactive)
IGROV-1
  GI50: 27.1 µM (inactive)

## COC(=O)Oc1nn(C(=O)OC)c(=O)c2ccccc12
HOP-62
  GI50: > 100 µM (inactive)
BT-549
  GI50: > 100 µM (inactive)
DU-145
  GI50: > 100 µM (inactive)
LOX IMVI
  GI50: > 100 µM (inactive)
MDA-MB-435
  GI50: > 100 µM (inactive)
NCI-H522
  GI50: > 100 µM (inactive)
SF-268
  GI50: > 100 µM (inactive)
K562
  GI50: > 100 µM (inactive)
SN12C
  GI50: > 100 µM (inactive)
HCT-15
  GI50: > 100 µM
COLO 205
  GI50: 85.1 µM (inactive)
SNB-19
  GI50: > 100 µM (inactive)
OVCAR-3
  GI50: > 100 µM (inactive)
KM12
  GI50: > 100 µM (inactive)
A549
  GI50: > 100 µM (inactive)
OVCAR-5
  GI50: > 100 µM (inactive)
CAKI-1
  GI50: > 100 µM (inactive)
IGROV-1
  GI50: > 100 µM (inactive)

## Cn1c(S)nnc1CNc1ccc(-c2nnc(S)n2C)cc1
HOP-62
  GI50: > 100 µM (inactive)
BT-549
  GI50: > 100 µM (inactive)
DU-145
  GI50: > 100 µM (inactive)
LOX IMVI
  GI50: > 100 µM (inactive)
MDA-MB-435
  GI50: > 100 µM (inactive)
NCI-H522
  GI50: > 100 µM (inactive)
SF-268
  GI50: > 100 µM (inactive)
K562
  GI50: > 100 µM (inactive)
SN12C
  GI50: > 100 µM (inactive)
HCT-15
  GI50: > 100 µM
COLO 205
  GI50: > 100 µM (inactive)
SNB-19
  GI50: > 100 µM (inactive)
OVCAR-3
  GI50: > 100 µM (inactive)
KM12
  GI50: > 100 µM (inactive)
A549
  GI50: > 100 µM (inactive)
OVCAR-5
  GI50: > 100 µM (inactive)
HT-29
  GI50: > 100 µM (inactive)
CAKI-1
  GI50: > 100 µM (inactive)
IGROV-1
  GI50: > 100 µM (inactive)

## Cc1ccc(-c2n[nH]c(=O)n2N)cc1
HOP-62
  GI50: > 100 µM (inactive)
BT-549
  GI50: > 100 µM (inactive)
DU-145
  GI50: > 100 µM (inactive)
LOX IMVI
  GI50: > 100 µM (inactive)
MDA-MB-435
  GI50: > 100 µM (inactive)
NCI-H522
  GI50: > 100 µM (inactive)
SF-268
  GI50: > 100 µM (inactive)
K562
  GI50: > 100 µM (inactive)
SN12C
  GI50: > 100 µM (inactive)
HCT-15
  GI50: > 100 µM
COLO 205
  GI50: > 100 µM (inactive)
SNB-19
  GI50: > 100 µM (inactive)
OVCAR-3
  GI50: > 100 µM (inactive)
KM12
  GI50: > 100 µM (inactive)
A549
  GI50: > 100 µM (inactive)
OVCAR-5
  GI50: > 100 µM (inactive)
HT-29
  GI50: > 100 µM (inactive)
CAKI-1
  GI50: > 100 µM (inactive)
IGROV-1
  GI50: > 100 µM (inactive)

## C=CCOc1ccc(C2(O)c3ccccc3C3=NCCCN32)cc1 (stereo unspecified)
HOP-62
  GI50: 60.5 µM (inactive)
BT-549
  GI50: > 100 µM (inactive)
DU-145
  GI50: > 100 µM (inactive)
LOX IMVI
  GI50: 48.8 µM (inactive)
MDA-MB-435
  GI50: 30.1 µM (inactive)
NCI-H522
  GI50: 21.2 µM (inactive)
SF-268
  GI50: > 61.4 µM (inactive)
K562
  GI50: 32.4 µM (inactive)
SN12C
  GI50: > 73.6 µM (inactive)
HCT-15
  GI50: > 62.2 µM
COLO 205
  GI50: 19.9 µM (inactive)
SNB-19
  GI50: 47.8 µM (inactive)
OVCAR-3
  GI50: 46.3 µM (inactive)
KM12
  GI50: 44.5 µM (inactive)
A549
  GI50: 55.3 µM (inactive)
OVCAR-5
  GI50: 72.4 µM (inactive)
HT-29
  GI50: > 65.9 µM (inactive)
CAKI-1
  GI50: > 62.8 µM (inactive)
IGROV-1
  GI50: 28.6 µM (inactive)
